Source: US9738634B2, “Heterocyclic amide compound and herbicide” (SYNGENTA PARTICIPATIONS AG, priority 2013, dated 2017)

Tests used:
Format in all cases: in vivo
[1] = tested on: transplanted rice; assay: Test Example 1: preemergent weed treatment in the submerged state, effect on crop; a: transplanted rice; settings: treatment dosage 252 g/ha
Summary of the method: (§1)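 Submerged pre-emergence treatment, water-surface application of compound emulsion at g/ha dosages; 4 cm flooded alluvial soil, weeds sown and 2.5-leaf rice transplanted same day. Rated after 3 weeks, greenhouse.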

[2] = tested on: Indian mallow; assay: Test Example 4: weedkilling efficacy by foliar treatment; K: Indian mallow; settings: treatment dosage 315 g/ha
Summary of the method: (§2)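 Seeds are spot-sown into sterilized diluvial soil and covered with about 1.5 cm of soil. After 14 days' greenhouse growth at 25 to 30° C, plants are sprayed on stems and leaves with diluted emulsion at the stated g/ha rate, then scored at 3 weeks.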

[3] = tested on: directly sown rice; assay: Test Example 4: foliar treatment, effect on crop; b: directly sown rice; settings: treatment dosage 315 g/ha
Summary of the method: as §2

[4] = tested on: bulrush; assay: Test Example 2: weedkilling efficacy, growth period weed treatment in the submerged state; B: bulrush; settings: treatment dosage 252 g/ha
Summary of the method: (§3)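 Seedlings at 1-2 leaves in 4 cm-deep submerged alluvial soil received emulsion formulations on the water surface, dosed per hectare; effects were judged 3 weeks on.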

[5] = tested on: barnyard grass; assay: Test Example 1: weedkilling efficacy, preemergent weed treatment in the submerged state; A: barnyard grass; settings: treatment dosage 252 g/ha
Summary of the method: as §1

[6] = tested on: chickweed; assay: Test Example 4: weedkilling efficacy by foliar treatment; N: chickweed; settings: treatment dosage 315 g/ha
Summary of the method: as §2

[7] = tested on: wheat; assay: Test Example 4: foliar treatment, effect on crop; e: wheat; settings: treatment dosage 315 g/ha
Summary of the method: as §2

[8] = tested on: green foxtail; assay: Test Example 4: weedkilling efficacy by foliar treatment; E: green foxtail; settings: treatment dosage 315 g/ha
Summary of the method: as §2

[9] = tested on: black-grass; assay: Test Example 4: weedkilling efficacy by foliar treatment; H: black-grass; settings: treatment dosage 315 g/ha
Summary of the method: as §2

[10] = tested on: birds-eye speedwell; assay: Test Example 4: weedkilling efficacy by foliar treatment; p: birds-eye speedwell; settings: treatment dosage 315 g/ha
Summary of the method: as §2

[11] = tested on: oval-leafed pondweed; assay: Test Example 2: weedkilling efficacy, growth period weed treatment in the submerged state; C: oval-leafed pondweed; settings: treatment dosage 252 g/ha
Summary of the method: as §3

[12] = tested on: beet; assay: Test Example 4: foliar treatment, effect on crop; f: beet; settings: treatment dosage 315 g/ha
Summary of the method: as §2

[13] = tested on: chickweed; assay: Test Example 3: weedkilling efficacy through soil treatment; N: chickweed; settings: treatment dosage 315 g/ha
Summary of the method: (§4)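 Crop and weed responses were judged three weeks after a uniform surface spray of the water-diluted emulsion at the given g/ha rate. Seeds sat beneath about 1.5 cm of sterilized diluvial soil, and boxes stood in a greenhouse at 25 to 30° C.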

[14] = tested on: beet; assay: Test Example 3: soil treatment, effect on crop; f: beet; settings: treatment dosage 315 g/ha
Summary of the method: as §4

[15] = tested on: black-grass; assay: Test Example 3: weedkilling efficacy through soil treatment; H: black-grass; settings: treatment dosage 315 g/ha
Summary of the method: as §4

[16] = tested on: wheat; assay: Test Example 3: soil treatment, effect on crop; e: wheat; settings: treatment dosage 315 g/ha
Summary of the method: as §4

[17] = tested on: Italian ryegrass; assay: Test Example 3: weedkilling efficacy through soil treatment; I: Italian ryegrass; settings: treatment dosage 315 g/ha
Summary of the method: as §4

[18] = tested on: corn; assay: Test Example 3: soil treatment, effect on crop; c: corn; settings: treatment dosage 315 g/ha
Summary of the method: as §4

[19] = tested on: oval-leafed pondweed; assay: Test Example 1: weedkilling efficacy, preemergent weed treatment in the submerged state; C: oval-leafed pondweed; settings: treatment dosage 252 g/ha
Summary of the method: as §1

[20] = tested on: directly sown rice; assay: Test Example 3: soil treatment, effect on crop; b: directly sown rice; settings: treatment dosage 315 g/ha
Summary of the method: as §4

[21] = tested on: soybean; assay: Test Example 4: foliar treatment, effect on crop; d: soybean; settings: treatment dosage 315 g/ha
Summary of the method: as §2

[22] = tested on: soybean; assay: Test Example 3: soil treatment, effect on crop; d: soybean; settings: treatment dosage 315 g/ha
Summary of the method: as §4

[23] = tested on: corn; assay: Test Example 4: foliar treatment, effect on crop; c: corn; settings: treatment dosage 315 g/ha
Summary of the method: as §2

[24] = tested on: fig-leafed goosefoot; assay: Test Example 3: weedkilling efficacy through soil treatment; M: fig-leafed goosefoot; settings: treatment dosage 315 g/ha
Summary of the method: as §4

[25] = tested on: Indian mallow; assay: Test Example 3: weedkilling efficacy through soil treatment; K: Indian mallow; settings: treatment dosage 315 g/ha
Summary of the method: as §4

[26] = tested on: redroot pigweed; assay: Test Example 3: weedkilling efficacy through soil treatment; L: redroot pigweed; settings: treatment dosage 315 g/ha
Summary of the method: as §4

[27] = tested on: Italian ryegrass; assay: Test Example 4: weedkilling efficacy by foliar treatment; I: Italian ryegrass; settings: treatment dosage 315 g/ha
Summary of the method: as §2

[28] = tested on: barnyard grass; assay: Test Example 2: weedkilling efficacy, growth period weed treatment in the submerged state; A: barnyard grass; settings: treatment dosage 252 g/ha
Summary of the method: as §3

[29] = tested on: bulrush; assay: Test Example 1: weedkilling efficacy, preemergent weed treatment in the submerged state; B: bulrush; settings: treatment dosage 252 g/ha
Summary of the method: as §1

[30] = tested on: redroot pigweed; assay: Test Example 4: weedkilling efficacy by foliar treatment; L: redroot pigweed; settings: treatment dosage 315 g/ha
Summary of the method: as §2

[31] = tested on: birds-eye speedwell; assay: Test Example 3: weedkilling efficacy through soil treatment; p: birds-eye speedwell; settings: treatment dosage 315 g/ha
Summary of the method: as §4

[32] = tested on: catchweed; assay: Test Example 4: weedkilling efficacy by foliar treatment; O: catchweed; settings: treatment dosage 315 g/ha
Summary of the method: as §2

[33] = tested on: fig-leafed goosefoot; assay: Test Example 4: weedkilling efficacy by foliar treatment; M: fig-leafed goosefoot; settings: treatment dosage 315 g/ha
Summary of the method: as §2

[34] = tested on: green foxtail; assay: Test Example 3: weedkilling efficacy through soil treatment; E: green foxtail; settings: treatment dosage 315 g/ha
Summary of the method: as §4

[35] = tested on: crabgrass; assay: Test Example 3: weedkilling efficacy through soil treatment; D: crabgrass; settings: treatment dosage 315 g/ha
Summary of the method: as §4

[36] = tested on: crabgrass; assay: Test Example 4: weedkilling efficacy by foliar treatment; D: crabgrass; settings: treatment dosage 315 g/ha
Summary of the method: as §2

## CC1=C(c2ccccc2)C(=O)N(C(C)(C)C(=O)Nc2cccc(Br)n2)CO1 [B-2-31]
[1]
  a (transplanted rice) effect on crop grade: 0 (weed kill ratio 5% or less (practically no effect))
[2]
  K (Indian mallow) weedkilling efficacy grade: 5 (weed kill ratio 90% or more, (practically complete withering))
[3]
  b (directly sown rice) effect on crop grade: 5 (weed kill ratio 90% or more, (practically complete withering))
[4]
  B (bulrush) weedkilling efficacy grade: 5 (weed kill ratio 90% or more, (practically complete withering))
[5]
  A (barnyard grass) weedkilling efficacy grade: 5 (weed kill ratio 90% or more, (practically complete withering))
[6]
  N (chickweed) weedkilling efficacy grade: 5 (weed kill ratio 90% or more, (practically complete withering))
[7]
  e (wheat) effect on crop grade: 5 (weed kill ratio 90% or more, (practically complete withering))
[8]
  E (green foxtail) weedkilling efficacy grade: 5 (weed kill ratio 90% or more, (practically complete withering))
[9]
  H (black-grass) weedkilling efficacy grade: 5 (weed kill ratio 90% or more, (practically complete withering))
[10]
  P (birds-eye speedwell) weedkilling efficacy grade: 4 (weed kill ratio 70% or more, less than 90%)
[11]
  C (oval-leafed pondweed) weedkilling efficacy grade: 0 (weed kill ratio 5% or less (practically no effect))
[12]
  f (beet) effect on crop grade: 4 (weed kill ratio 70% or more, less than 90%)
[13]
  N (chickweed) weedkilling efficacy grade: 5 (weed kill ratio 90% or more, (practically complete withering))
[14]
  f (beet) effect on crop grade: 5 (weed kill ratio 90% or more, (practically complete withering))
[15]
  H (black-grass) weedkilling efficacy grade: 5 (weed kill ratio 90% or more, (practically complete withering))
[16]
  e (wheat) effect on crop grade: 5 (weed kill ratio 90% or more, (practically complete withering))
[17]
  I (Italian ryegrass) weedkilling efficacy grade: 5 (weed kill ratio 90% or more, (practically complete withering))
[18]
  c (corn) effect on crop grade: 0 (weed kill ratio 5% or less (practically no effect))
[19]
  C (oval-leafed pondweed) weedkilling efficacy grade: 5 (weed kill ratio 90% or more, (practically complete withering))
[20]
  b (directly sown rice) effect on crop grade: 5 (weed kill ratio 90% or more, (practically complete withering))
[21]
  d (soybean) effect on crop grade: 5 (weed kill ratio 90% or more, (practically complete withering))
[22]
  d (soybean) effect on crop grade: 0 (weed kill ratio 5% or less (practically no effect))
[23]
  c (corn) effect on crop grade: 4 (weed kill ratio 70% or more, less than 90%)
[24]
  M (fig-leafed goosefoot) weedkilling efficacy grade: 4 (weed kill ratio 70% or more, less than 90%)
[25]
  K (Indian mallow) weedkilling efficacy grade: 0 (weed kill ratio 5% or less (practically no effect))
[26]
  L (redroot pigweed) weedkilling efficacy grade: 5 (weed kill ratio 90% or more, (practically complete withering))
[27]
  I (Italian ryegrass) weedkilling efficacy grade: 5 (weed kill ratio 90% or more, (practically complete withering))
[28]
  A (barnyard grass) weedkilling efficacy grade: 5 (weed kill ratio 90% or more, (practically complete withering))
[29]
  B (bulrush) weedkilling efficacy grade: 5 (weed kill ratio 90% or more, (practically complete withering))
[30]
  L (redroot pigweed) weedkilling efficacy grade: 5 (weed kill ratio 90% or more, (practically complete withering))
[31]
  P (birds-eye speedwell) weedkilling efficacy grade: 5 (weed kill ratio 90% or more, (practically complete withering))
[32]
  O (catchweed) weedkilling efficacy grade: 3 (weed kill ratio 40% or more, less than 70%)
[33]
  M (fig-leafed goosefoot) weedkilling efficacy grade: 4 (weed kill ratio 70% or more, less than 90%)
[34]
  E (green foxtail) weedkilling efficacy grade: 5 (weed kill ratio 90% or more, (practically complete withering))
[35]
  D (crabgrass) weedkilling efficacy grade: 5 (weed kill ratio 90% or more, (practically complete withering))
[36]
  D (crabgrass) weedkilling efficacy grade: 5 (weed kill ratio 90% or more, (practically complete withering))
